Bridge positions count the residues as written; N and C are the ends. Square brackets hold non-standard residues; d marks the D form. Peptide text beside a SMILES is read from it. Trp(7-Me) = Cc1cccc2c(C[C@H](N)C(=O)O)c[nH]c12; 2Nal = N[C@@H](Cc1ccc2ccccc2c1)C(=O)O; AEF = NCCOc1ccc(C[C@H](N)C(=O)O)cc1; Cit = NC(=O)NCCC[C@H](N)C(=O)O; Pen = CC(C)(S)[C@H](N)C(=O)O; hLeu = CC(C)CC[C@H](N)C(=O)O; αMeK = C[C@](N)(CCCCN)C(=O)O; Dab = NCC[C@H](N)C(=O)O; Aib = CC(C)(N)C(=O)O; βAla = NCCC(=O)O; Sar = CNCC(=O)O

Common to all, as to type: in vitro ADME
One data set in a line: Stability in rat plasma. To be noted: both sexes, SD rat plasma, EDTA, 37° C., read-out: t½: Rat Plasma EDTA (converted).
Data set [1] can be described thus: Stability in simulated intestinal fluid (SIF). The settings on record: simulated intestinal fluid with pancreatin, pH 6.8, 37° C., matrix is 100 fold dilution of standard SIF concentration; for half-life at 20 μM: read-out: SIF t½ (converted); for SIF t½: 20 μM.
The nature of data set [2]: Stability in human fecal homogenate. The settings on record: 20% fecal homogenate (supernatant), pH 6.8, 20% human fecal homogenate, anaerobic, 37° C., read-out: t½: Human Feces anaerobic (converted). The procedure:
(§1) Centrifuged the homogenate at 2800×g for 15 min. The supernatant is taken out and used for incubations. […] The final test compound concentration was 20 μM.

A short description of data set [3]: Stability in cynomolgus monkey fecal homogenate. The settings on record: 20% fecal homogenate (supernatant), pH 6.8, 20% cynomolgus monkey fecal homogenate, anaerobic, 37° C., read-out: t½: Monkey Feces anaerobic (converted). The procedure: as §1

As for `CC(=O)NCCCC[C@@H]1NC(=O)[C@H](Cc2c[nH]c3c(C)cccc23)NC(=O)[C@H]([C@@H](C)O)NC(=O)[C@H](C)NC(=O)[C@@H](NC(C)=O)C(C)(C)SSC(C)(C)[C@@H](C(=O)N[C@@H](Cc2ccc(OCCN)cc2)C(=O)N[C@@H](Cc2ccc3ccccc3c2)C(=O)N[C@@](C)(CCCCN)C(=O)N[C@@H](CCCCNC(C)=O)C(=O)N[C@@H](CC(N)=O)C(=O)N[C@H](CC(C)C)C(N)=O)NC1=O` [compound 328] (Ac-[Pen]AT[Trp(7-Me)]K(Ac)[Pen][AEF][2Nal][αMeK]K(Ac)N[dL]-NH2; disulfide 1-6), the half-life at 20 μM in “Stability in rat plasma” was greater than 24 h; in data set [1], 23 h; in data set [2] it was greater than 24 h; in data set [3], greater than 24 h.

Take `CC(=O)NCCCC[C@@H]1NC(=O)[C@H](Cc2c[nH]c3c(C)cccc23)NC(=O)[C@H]([C@@H](C)O)NC(=O)CNC(=O)[C@@H](NC(C)=O)C(C)(C)SSC(C)(C)[C@@H](C(=O)N[C@@H](Cc2ccc(OCCN)cc2)C(=O)N[C@@H](Cc2ccc3ccccc3c2)C(=O)N[C@@](C)(CCCCN)C(=O)N[C@@H](CCCCNC(C)=O)C(=O)N[C@@H](CC(N)=O)C(=O)N[C@H](CC(C)C)C(N)=O)NC1=O` [compound 329] (Ac-[Pen]GT[Trp(7-Me)]K(Ac)[Pen][AEF][2Nal][αMeK]K(Ac)N[dL]-NH2; disulfide 1-6): the half-life at 20 μM was greater than 24 h in “Stability in rat plasma”, 12 h in data set [1], greater than 24 h in data set [2] and greater than 24 h in data set [3].

In the case of `CC(=O)NCCCC[C@@H]1NC(=O)[C@H](Cc2c[nH]c3c(C)cccc23)NC(=O)[C@H]([C@@H](C)O)NC(=O)[C@H](CCCCNC(C)=O)NC(=O)[C@@H](NC(C)=O)C(C)(C)SSC(C)(C)[C@@H](C(=O)N[C@@H](Cc2ccc(OCCN)cc2)C(=O)N[C@@H](Cc2ccc3ccccc3c2)C(=O)N[C@@](C)(CCCCN)C(=O)N[C@@H](CCCCNC(C)=O)C(=O)N[C@@H](CC(N)=O)C(=O)N[C@H](CC(C)C)C(N)=O)NC1=O` [compound 330] (Ac-[Pen]K(Ac)T[Trp(7-Me)]K(Ac)[Pen][AEF][2Nal][αMeK]K(Ac)N[dL]-NH2; disulfide 1-6), the half-life at 20 μM (in “Stability in rat plasma”; in data set [2]; in data set [3]) was greater than 24 h each time. For the same compound, in data set [1], the “SIF t½” value is 24 h.

Take `CC(=O)NCCCC[C@@H]1NC(=O)[C@H](Cc2c[nH]c3c(C)cccc23)NC(=O)[C@H]([C@@H](C)O)NC(=O)[C@H](CCCNC(N)=O)NC(=O)[C@@H](NC(C)=O)C(C)(C)SSC(C)(C)[C@@H](C(=O)N[C@@H](Cc2ccc(OCCN)cc2)C(=O)N[C@@H](Cc2ccc3ccccc3c2)C(=O)N[C@@](C)(CCCCN)C(=O)N[C@@H](CCCCNC(C)=O)C(=O)N[C@@H](CC(N)=O)C(=O)N[C@H](CC(C)C)C(N)=O)NC1=O` [compound 331] (Ac-[Pen][Cit]T[Trp(7-Me)]K(Ac)[Pen][AEF][2Nal][αMeK]K(Ac)N[dL]-NH2; disulfide 1-6): the half-life at 20 μM in “Stability in rat plasma” was greater than 24 h; in data set [1] it was 15 h; in data set [2], greater than 24 h; in data set [3] it was greater than 24 h.

In the case of `CC(=O)NCCCC[C@@H]1NC(=O)[C@H](Cc2c[nH]c3c(C)cccc23)NC(=O)[C@H]([C@@H](C)O)NC(=O)[C@H](CC(C)C)NC(=O)[C@@H](NC(C)=O)C(C)(C)SSC(C)(C)[C@@H](C(=O)N[C@@H](Cc2ccc(OCCN)cc2)C(=O)N[C@@H](Cc2ccc3ccccc3c2)C(=O)N[C@@](C)(CCCCN)C(=O)N[C@@H](CCCCNC(C)=O)C(=O)N[C@@H](CC(N)=O)C(=O)N[C@H](CC(C)C)C(N)=O)NC1=O` [compound 332] (Ac-[Pen]LT[Trp(7-Me)]K(Ac)[Pen][AEF][2Nal][αMeK]K(Ac)N[dL]-NH2; disulfide 1-6), the half-life at 20 μM (in “Stability in rat plasma”; in data set [2]; in data set [3]) was greater than 24 h throughout. In addition, the “SIF t½” value in data set [1] is 24 h.

Consider `CC(=O)NCCCC[C@@H]1NC(=O)[C@H](Cc2c[nH]c3c(C)cccc23)NC(=O)[C@H]([C@@H](C)O)NC(=O)[C@@H]2CCCN2C(=O)[C@@H](NC(C)=O)C(C)(C)SSC(C)(C)[C@@H](C(=O)N[C@@H](Cc2ccc(OCCN)cc2)C(=O)N[C@@H](Cc2ccc3ccccc3c2)C(=O)N[C@@](C)(CCCCN)C(=O)N[C@@H](CCCCNC(C)=O)C(=O)N[C@@H](CC(N)=O)C(=O)N[C@H](CC(C)C)C(N)=O)NC1=O` [compound 333] (Ac-[Pen]PT[Trp(7-Me)]K(Ac)[Pen][AEF][2Nal][αMeK]K(Ac)N[dL]-NH2; disulfide 1-6), for which the half-life at 20 μM was greater than 24 h in the data set “Stability in rat plasma”, 22 h in data set [1], greater than 24 h in data set [2] and 24 h in data set [3].

For the compound `CC(=O)NCCCC[C@@H]1NC(=O)[C@H](Cc2c[nH]c3c(C)cccc23)NC(=O)[C@H]([C@@H](C)O)NC(=O)[C@H](CO)NC(=O)[C@@H](NC(C)=O)C(C)(C)SSC(C)(C)[C@@H](C(=O)N[C@@H](Cc2ccc(OCCN)cc2)C(=O)N[C@@H](Cc2ccc3ccccc3c2)C(=O)N[C@@](C)(CCCCN)C(=O)N[C@@H](CCCCNC(C)=O)C(=O)N[C@@H](CC(N)=O)C(=O)N[C@H](CC(C)C)C(N)=O)NC1=O` [compound 334] (Ac-[Pen]ST[Trp(7-Me)]K(Ac)[Pen][AEF][2Nal][αMeK]K(Ac)N[dL]-NH2; disulfide 1-6), the half-life at 20 μM (in the data set “Stability in rat plasma”; in data set [2]; in data set [3]) was greater than 24 h in each case. Also, the “SIF t½” value in data set [1] was 24 h.

For `CC(=O)NCCCC[C@@H]1NC(=O)[C@H](Cc2c[nH]c3c(C)cccc23)NC(=O)[C@H]([C@@H](C)O)NC(=O)[C@H](CCNC(C)=O)NC(=O)[C@@H](NC(C)=O)C(C)(C)SSC(C)(C)[C@@H](C(=O)N[C@@H](Cc2ccc(OCCN)cc2)C(=O)N[C@@H](Cc2ccc3ccccc3c2)C(=O)N[C@@](C)(CCCCN)C(=O)N[C@@H](CCCCNC(C)=O)C(=O)N[C@@H](CC(N)=O)C(=O)N[C@H](CC(C)C)C(N)=O)NC1=O` [compound 335] (Ac-[Pen][Dab](Ac)T[Trp(7-Me)]K(Ac)[Pen][AEF][2Nal][αMeK]K(Ac)N[dL]-NH2; disulfide 1-6), the half-life at 20 μM in the data set “Stability in rat plasma” is greater than 24 h; in data set [1], 20 h; in data set [2], greater than 24 h; in data set [3] it was greater than 24 h.

Take `CC(=O)NCCCC[C@@H]1NC(=O)[C@H](Cc2c[nH]c3c(C)cccc23)NC(=O)[C@H]([C@@H](C)O)NC(=O)[C@H](CCCNC(=N)N)NC(=O)[C@@H](NC(C)=O)C(C)(C)SSC(C)(C)[C@@H](C(=O)N[C@@H](Cc2ccc(OCCN)cc2)C(=O)N[C@@H](Cc2ccc3ccccc3c2)C(=O)N[C@@](C)(CCCCN)C(=O)N[C@@H](CCCCNC(C)=O)C(=O)N[C@@H](CC(N)=O)C(=O)N[C@H](CC(C)C)C(N)=O)NC1=O` [compound 336] (Ac-[Pen]RT[Trp(7-Me)]K(Ac)[Pen][AEF][2Nal][αMeK]K(Ac)N[dL]-NH2; disulfide 1-6): the half-life at 20 μM in the data set “Stability in rat plasma” is greater than 24 h; in data set [1] it was 10 h; in data set [2], greater than 24 h; in data set [3] it was greater than 24 h.

`CC(=O)NCCCC[C@@H]1NC(=O)[C@H](Cc2c[nH]c3c(C)cccc23)NC(=O)[C@H]([C@@H](C)O)NC(=O)[C@H](CCC(C)C)NC(=O)[C@@H](NC(C)=O)C(C)(C)SSC(C)(C)[C@@H](C(=O)N[C@@H](Cc2ccc(OCCN)cc2)C(=O)N[C@@H](Cc2ccc3ccccc3c2)C(=O)N[C@@](C)(CCCCN)C(=O)N[C@@H](CCCCNC(C)=O)C(=O)N[C@@H](CC(N)=O)C(=O)N[C@H](CC(C)C)C(N)=O)NC1=O` [compound 337] (Ac-[Pen][hLeu]T[Trp(7-Me)]K(Ac)[Pen][AEF][2Nal][αMeK]K(Ac)N[dL]-NH2; disulfide 1-6): the half-life at 20 μM (in “Stability in rat plasma”; in data set [2]; in data set [3]) was greater than 24 h each time. For the same compound, in data set [1], the “SIF t½” value is 24 h.

As to `CC(=O)NCCCC[C@H](NC(=O)[C@](C)(CCCCN)NC(=O)[C@H](Cc1ccc2ccccc2c1)NC(=O)[C@H](Cc1ccc(OCCN)cc1)NC(=O)[C@H]1NC(=O)[C@H](CCCNC(N)=O)NC(=O)[C@H](Cc2c[nH]c3c(C)cccc23)NC(=O)[C@H]([C@@H](C)O)NC(=O)[C@H](CC(N)=O)NC(=O)[C@@H](NC(C)=O)C(C)(C)SSC1(C)C)C(=O)N[C@@H](CC(N)=O)C(=O)N(C)CC(N)=O` [compound 339] (Ac-[Pen]NT[Trp(7-Me)][Cit][Pen][AEF][2Nal][αMeK]K(Ac)N[Sar]-NH2; disulfide 1-6), the half-life at 20 μM in the data set “Stability in rat plasma” was greater than 24 h; in data set [2] it was greater than 24 h; in data set [3], 18 h. For the same compound, in data set [1], the “SIF t½” value is 24 h.

For `CC(=O)NCCCC[C@H](NC(=O)[C@](C)(CCCCN)NC(=O)[C@H](Cc1ccc2ccccc2c1)NC(=O)[C@H](Cc1ccc(OCCN)cc1)NC(=O)[C@H]1NC(=O)[C@H](CCCNC(N)=O)NC(=O)[C@H](Cc2c[nH]c3c(C)cccc23)NC(=O)[C@H]([C@@H](C)O)NC(=O)[C@H](CC(N)=O)NC(=O)[C@@H](NC(C)=O)C(C)(C)SSC1(C)C)C(=O)N[C@@H](CC(N)=O)C(=O)NC(C)(C)C(=O)NCCC(N)=O` [compound 340] (Ac-[Pen]NT[Trp(7-Me)][Cit][Pen][AEF][2Nal][αMeK]K(Ac)N[Aib][βAla]-NH2; disulfide 1-6), the half-life at 20 μM in the data set “Stability in rat plasma” is greater than 24 h; in data set [1] it was 17 h; in data set [2], greater than 24 h; in data set [3], greater than 24 h.
